From patent US20220326218A1, “COMPOSITION AND METHOD FOR INHIBITING BORC COMPLEX TO TREAT CANCERS WITH NF1 DEFICIENCY AND DYSREGULATED RAS SIGNALING” (THE TRUSTEES OF DARTMOUTH COLLEGE, priority 2019, published 2022)

Tests used:
sNF96.2 cells = assay: Hoechst cell death viability assay, sNF96.2; assay type: cell-based, human; details: sNF96.2 MPNST cells, up to 3 days, 100 μM to 0.039 μM, Hoechst 33258
Description: Cells were plated at 2,500 cells/well in 96-well plates and allowed to adhere overnight. Medium was removed and replaced with media containing compound starting at 100 μM, followed by 2-fold serial dilutions to generate a 10-point range of concentrations normalized with DMSO; one row was treated with DMSO as a control. Cells were incubated for the indicated timepoints. Upon collection, media was removed, cells were rinsed with PBS, and stored at −80° C. until all plates were collected. To process cells, plates were thawed with PBS, incubated with 1× saline-sodium citrate (SSC) buffer with 0.02% sodium dodecyl sulfate (SDS) for 1 hour at 37° C., followed by staining with 1 μg/mL Hoechst 33258 (Pierce). […] using a Spectramax M2 at an excitation of 355 nm and an emission of 460 nm, and absorbance was normalized to DMSO. Each experiment was repeated 2-3 times with 4 technical replicates per experiment.

[1] = tested on: 8-hydroxyguanosine (8-OHG); assay: Immunofluorescence staining for oxidative stress marker 8-OHG; assay type: cell-based, human; details: U87-MG, 2 μM, 24 h
Description: U87-MG cells were plated at a concentration of 50,000 cells/well onto precoated poly-D-lysine (PDL) coverslips (Neuvitro) in 24-well plates (Falcon) and allowed to adhere overnight. Medium was removed and replaced with treatment-laced media normalized to DMSO, and cells were treated for the indicated timepoints. At the time of collection, cells were washed with PBS and fixed with 4% paraformaldehyde without methanol (EMS) or 100% methanol (Fischer). Coverslips were washed with Tween20-containing PBS (PBST; Fischer). Following permeabilization with 0.5% Triton X-100 in PBS (Fischer), coverslips were blocked for 1 h at room temperature in IF Buffer (0.05% azide, 0.2% Triton X-100, 2% Normal Goat Serum or, for 8-OHG, Normal Donkey Serum). The following primary antibodies were used for 1 hour at room temperature unless specified: AlexaFluor 488 pre-conjugated anti-γ-H2AX (N1-431) mouse monoclonal (30 minutes; BD Biosciences), anti-cleaved caspase 3 (Asp175) rabbit polyclonal (Cell Signaling), anti-SQSTM1/p62 (D-3) mouse monoclonal (Santa Cruz), anti-8-Hydroxyguanosine goat polyclonal (1:200; Millipore), anti-LAMP1 (D4O1S) mouse monoclonal (O/N at 4° C.; Cell Signaling), anti-BNIP3L/Nix (D4R4B) rabbit monoclonal (O/N at 4° C.; Cell Signaling), anti-FLAG (M2) mouse monoclonal (2 hours at 37° C.; Sigma-Aldrich). […]

Cn1cnnc1S/C=C/C(=O)c1ccc(F)cc1 [Y102]
sensitivity of NF1-deficient cell line to treatment (sNF96.2 cells): sensitive
8-OHG compared to DMSO [1]: increase
localization of 8-OHG oxidative stress-induced damage [1]: both nuclear and mitochondrial DNA
